The target in test [1] is T1, Human σ1 receptor (Homo sapiens, UniProt Q99720).
T1 construct: expressed in transfected cells; host or cells: HEK-293
Briefly: Human σ1 receptor radioligand assay ([3H](+)-pentazocine binding, transfected HEK-293 membranes). The following applies: binding to σ1 receptor expressed as Ki; + also covers inhibition between 1% and 50%; read-out: σ-1 binding. The protocol:
Human σ1 Receptor Radioligand Assay
Transfected HEK-293 membranes (7 μg) were incubated with 5 nM of [^3H](+)-pentazocine in assay buffer containing Tris-HCl 50 mM at pH 8. NBS (non-specific binding) was measured by adding 10 μM haloperidol. The binding of the test compound was measured at either one concentration (% inhibition at 1 or 10 μM) or five different concentrations to determine affinity values (Ki). Plates were incubated at 37° C. for 120 minutes. After the incubation period, the reaction mix was then transferred to MultiScreen HTS, FC plates (Millipore), filtered and plates were washed 3 times with ice-cold 10 mM Tris-HCL (pH7.4). Filters were dried and counted at approximately 40% efficiency in a MicroBeta scintillation counter (Perkin-Elmer) using EcoScint liquid scintillation cocktail.

Test [2] deals with Human α2δ-1 subunit of Cav2.2 calcium channel (Homo sapiens, UniProt P54289). The test is described as follows: Human α2δ-1 subunit of Cav2.2 calcium channel assay ([3H]-gabapentin binding). The note with it: binding to the α2δ-1 subunit of voltage-gated calcium channels expressed as Ki; + also covers inhibition between 1% and 50%. The protocol:
Biological Activity Pharmacological Study Human α2δ-1 Subunit of Cav2.2 Calcium Channel Assay
Human α2δ-1 enriched membranes (2.5 μg) were incubated with 15 nM of radiolabeled [^3H]-Gabapentin in assay buffer containing Hepes-KOH 10 mM, pH 7.4. NSB (non specific binding) was measured by adding 10 μM pregabalin. The binding of the test compound was measured at either one concentration (% inhibition at 1 or 10 μM) or five different concentrations to determine affinity values (Ki). After 60 min incubation at 27° C., binding reaction was terminated by filtering through Multiscreen GF/C (Millipore) presoaked in 0.5% polyethyleneimine in Vacuum Manifold Station, followed by 3 washes with ice-cold filtration buffer containing 50 mM Tris-HCl, pH 7.4. Filter plates were dried at 60° C. for 1 h and 30 μL of scintillation cocktail were added to each well before radioactivity reading. Readings were performed in a Trilux 1450 Microbeta radioactive counter (Perkin Elmer).

Chain of Human α2δ-1 subunit of Cav2.2 calcium channel (P54289 25-1103): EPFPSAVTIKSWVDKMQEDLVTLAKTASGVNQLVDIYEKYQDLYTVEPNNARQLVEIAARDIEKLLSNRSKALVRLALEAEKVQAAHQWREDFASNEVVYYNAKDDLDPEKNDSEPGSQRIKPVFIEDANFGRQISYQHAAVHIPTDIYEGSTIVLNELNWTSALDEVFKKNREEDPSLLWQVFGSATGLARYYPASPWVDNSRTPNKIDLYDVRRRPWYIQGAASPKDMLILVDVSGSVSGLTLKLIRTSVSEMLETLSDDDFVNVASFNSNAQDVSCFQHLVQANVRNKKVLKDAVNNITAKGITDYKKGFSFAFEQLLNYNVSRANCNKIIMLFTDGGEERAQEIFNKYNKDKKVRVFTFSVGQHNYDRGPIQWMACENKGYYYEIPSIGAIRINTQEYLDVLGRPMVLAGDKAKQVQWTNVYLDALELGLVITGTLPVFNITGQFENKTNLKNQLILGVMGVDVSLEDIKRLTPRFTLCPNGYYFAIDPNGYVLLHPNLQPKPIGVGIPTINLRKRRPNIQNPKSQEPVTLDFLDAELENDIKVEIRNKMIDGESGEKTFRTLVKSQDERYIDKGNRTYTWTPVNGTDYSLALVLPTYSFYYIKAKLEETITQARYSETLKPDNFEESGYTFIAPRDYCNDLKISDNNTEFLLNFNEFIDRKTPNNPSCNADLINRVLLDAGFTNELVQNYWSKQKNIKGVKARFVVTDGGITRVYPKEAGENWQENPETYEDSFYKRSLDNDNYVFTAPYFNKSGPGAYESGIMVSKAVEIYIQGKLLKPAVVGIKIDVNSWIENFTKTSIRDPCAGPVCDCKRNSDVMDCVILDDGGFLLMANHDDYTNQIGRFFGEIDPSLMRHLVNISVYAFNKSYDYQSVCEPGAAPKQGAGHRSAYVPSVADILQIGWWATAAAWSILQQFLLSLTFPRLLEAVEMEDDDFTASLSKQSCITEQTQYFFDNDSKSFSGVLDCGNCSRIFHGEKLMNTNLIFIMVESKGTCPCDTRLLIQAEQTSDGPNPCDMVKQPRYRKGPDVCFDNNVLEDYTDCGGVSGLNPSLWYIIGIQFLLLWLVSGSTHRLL
T1 sequence (Q99720 whole entry): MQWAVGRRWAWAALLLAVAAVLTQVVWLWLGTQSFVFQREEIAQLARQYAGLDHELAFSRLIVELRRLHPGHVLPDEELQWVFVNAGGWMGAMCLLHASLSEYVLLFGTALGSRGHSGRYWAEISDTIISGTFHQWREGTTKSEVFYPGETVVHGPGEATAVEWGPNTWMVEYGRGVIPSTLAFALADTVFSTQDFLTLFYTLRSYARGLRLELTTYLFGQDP

Regarding `Cc1nn2c(C3CCCN(Cc4ccc(Cl)cc4)C3)ccnc2c1-c1ccc(CO)nc1` (stereo not shown) [Example 135, (5-(7-(1-(4-Chlorobenzyl)piperidin-3-yl)-2-methylpyrazolo[1,5-a]pyrimidin-3-yl)pyridin-2-yl)methanol], the Ki in test [1] was above 1000 nM; in test [2], above 5000 nM.

Turning to `COc1nn2c(C3CCCN(Cc4ccc(Cl)cc4)C3)ccnc2c1CNCC1CCOCC1` (stereo not shown) [Example 189, 1-(7-(1-(4-Chlorobenzyl)piperidin-3-yl)-2-methoxypyrazolo[1,5-a]pyrimidin-3-yl)-N-((tetrahydro-2H-pyran-4-yl)methyl)methanamine], the Ki in test [1] and in test [2] was below 500 nM in each case.

In the case of `Cc1nn2c(C3CCCN(Cc4ccccc4)C3)ccnc2c1CN1CCNCC1` (stereo not shown) [Example 100, 7-(1-Benzylpiperidin-3-yl)-2-methyl-3-(piperazin-1-ylmethyl)pyrazolo[1,5-a]pyrimidine], the Ki in test [1] is above 1000 nM; in test [2], 500 to 5000 nM.

In the case of `COc1cncc(-c2cc3nccc(C4CCCN(Cc5ccccc5)C4)n3n2)c1` (stereo not shown) [Example 31, 7-(1-Benzylpiperidin-3-yl)-2-(5-methoxypyridin-3-yl)pyrazolo[1,5-a]pyrimidine], the Ki was above 1000 nM in test [1] and 500 to 5000 nM in test [2].

In the case of `COc1cc(-c2c(C)nn3c(C4CCCN(Cc5ccccc5)C4)ccnc23)ccn1` (stereo not shown) [Example 46, 7-(1-Benzylpiperidin-3-yl)-3-(2-methoxypyridin-4-yl)-2-methylpyrazolo[1,5-a]pyrimidine], the results for the Ki in test [1] and in test [2] were above 1000 nM and 500 to 5000 nM, respectively.

As to `CN[C@@H]1CCN(c2cc3nccc([C@@H]4CCCN(Cc5ccccc5)C4)n3n2)C1` [Example 84, (R)-1-(7-((R)-1-Benzylpiperidin-3-yl)pyrazolo[1,5-a]pyrimidin-2-yl)-N-methylpyrrolidin-3-amine], the Ki in test [1] is above 1000 nM; in test [2], 500 to 5000 nM.

Consider `COCCCCNCc1c(C)nn2c(C3CCCN(Cc4ccc(Cl)cc4)C3)ccnc12` (stereo not shown) [Example 163, N-((7-(1-(4-Chlorobenzyl)piperidin-3-yl)-2-methylpyrazolo[1,5-a]pyrimidin-3-yl)methyl)-4-methoxybutan-1-amine], for which the Ki in test [1] and in test [2] was below 500 nM throughout.

Consider `CC(=O)N1CCC(CNCc2c(C)nn3c([C@@H]4CCCN(Cc5ccc(Cl)cc5)C4)ccnc23)CC1` [Example 194, (R)-1-(4-((((7-(1-(4-chlorobenzyl)piperidin-3-yl)-2-methylpyrazolo[1,5-a]pyrimidin-3-yl)methyl)amino)methyl)piperidin-1-yl)ethan-1-one], for which the Ki was below 500 nM in test [1] and 500 to 5000 nM in test [2].

For `Cc1nn2c(C3CCCN(Cc4cccc(Cl)c4)C3)ccnc2c1-c1ccncc1` (stereo not shown) [Example 122, 7-(1-(3-Chlorobenzyl)piperidin-3-yl)-2-methyl-3-(pyridin-4-yl)pyrazolo[1,5-a]pyrimidine], the values for the Ki in test [1] and in test [2] were above 1000 nM and 500 to 5000 nM, respectively.

Regarding `Cc1nnc(-c2cccc(-c3c(C)nn4c(C5CCCN(Cc6ccccc6)C5)ccnc34)c2)o1` (stereo not shown) [Example 56, 2-(3-(7-(1-Benzylpiperidin-3-yl)-2-methylpyrazolo[1,5-a]pyrimidin-3-yl)phenyl)-5-methyl-1,3,4-oxadiazole], the values for the Ki in test [1] and in test [2] were above 1000 nM and 500 to 5000 nM, respectively.

`Cc1nn2c([C@@H]3CCCN([C@@H](CO)c4ccccc4)C3)ccnc2c1-c1ccncc1` [Example 109, (R)-2-((R)-3-(2-methyl-3-(pyridin-4-yl)pyrazolo[1,5-a]pyrimidin-7-yl)piperidin-1-yl)-2-phenylethanol]: the figures for the Ki in test [1] and in test [2] were above 1000 nM and 500 to 5000 nM, respectively.

For `Cc1nn2c(C3CCCN(Cc4ccc(F)c(F)c4)C3)ccnc2c1-c1ccncc1` (stereo not shown) [Example 125, 7-(1-(3,4-Difluorobenzyl)piperidin-3-yl)-2-methyl-3-(pyridin-4-yl)pyrazolo[1,5-a]pyrimidine], the Ki in test [1] is above 1000 nM; in test [2], 500 to 5000 nM.

Consider `Cc1nn2c(C3CCCN(Cc4ccc(Cl)cc4)C3)ccnc2c1CNCCCN1CCCC1=O` (stereo not shown) [Example 176, 1-(3-(((7-(1-(4-Chlorobenzyl)piperidin-3-yl)-2-methylpyrazolo[1,5-a]pyrimidin-3-yl)methyl)amino)propyl)pyrrolidin-2-one], for which the Ki in test [1] is above 1000 nM; in test [2], 500 to 5000 nM.

In the case of `Cc1nn2c(C3CCCN(Cc4ccccc4)C3)ccnc2c1Br` (stereo not shown) [Example 10, 7-(1-Benzylpiperidin-3-yl)-3-bromo-2-methylpyrazolo[1,5-a]pyrimidine], the Ki in test [1] is below 500 nM; in test [2], 500 to 5000 nM.

For the compound `CNCc1c(C)nn2c(C3CCCN(Cc4ccccc4)C3)ccnc12` (stereo not shown) [Example 96, 1-(7-(1-Benzylpiperidin-3-yl)-2-methylpyrazolo[1,5-a]pyrimidin-3-yl)-N-methylmethanamine], the figures for the Ki in test [1] and in test [2] were above 1000 nM and 500 to 5000 nM, respectively.

Take `Cc1nn2c([C@H]3CCCN(Cc4ccccc4)C3)ccnc2c1CNC[C@@H]1CCN(C)C(=O)C1` [Example 243, (R)-4-((((7-((S)-1-Benzylpiperidin-3-yl)-2-methylpyrazolo[1,5-a]pyrimidin-3-yl)methyl)amino)methyl)-1-methylpiperidin-2-one]: the Ki in test [1] is above 1000 nM; in test [2], 500 to 5000 nM.

In the case of `Cc1nn2c([C@H]3CCCN(Cc4ccc(Cl)cc4)C3)ccnc2c1CNC[C@@H]1CCOC1` [Example 203, 1-(7-((S)-1-(4-chlorobenzyl)piperidin-3-yl)-2-methylpyrazolo[1,5-a]pyrimidin-3-yl)-N—(((S)-tetrahydrofuran-3-yl)methyl)methanamine], the Ki in test [1] was below 500 nM; in test [2], 500 to 5000 nM.

On to `CC(=O)N1CCC(CNCc2c(Cl)nn3c([C@H]4CCCN(Cc5ccccc5)C4)ccnc23)CC1` [Example 216, (S)-1-(4-((((7-(1-Benzylpiperidin-3-yl)-2-chloropyrazolo[1,5-a]pyrimidin-3-yl)methyl)amino)methyl)piperidin-1-yl)ethan-1-one], for which the Ki in test [1] and in test [2] was below 500 nM each time.

In the case of `Cc1nn2c([C@@H]3CCCN(Cc4ccc(Cl)cc4)C3)ccnc2c1CNC[C@@H]1CCOC(C)(C)C1` (racemic) [Example 221, (+/−)-1-(7-((R/S)-1-(4-Chlorobenzyl)piperidin-3-yl)-2-methylpyrazolo[1,5-a]pyrimidin-3-yl)-N—(((R/S)-2,2-dimethyltetrahydro-2H-pyran-4-yl)methyl)methanamine], the Ki in test [1] and in test [2] was below 500 nM in each case.

For the compound `c1ccc(CN2CCCC(c3ccnc4cc(N5CCCC5)nn34)C2)cc1` (stereo not shown) [Example 78, 7-(1-Benzylpiperidin-3-yl)-2-(pyrrolidin-1-yl)pyrazolo[1,5-a]pyrimidine], the values for the Ki in test [1] and in test [2] were 500 to 1000 nM and above 5000 nM, respectively.

With `Cc1nn2c(C3CCCN(Cc4ccc(Cl)cc4)C3)ccnc2c1-c1cncn1C` (stereo not shown) [Example 138, 7-(1-(4-Chlorobenzyl)piperidin-3-yl)-2-methyl-3-(1-methyl-1H-imidazol-5-yl)pyrazolo[1,5-a]pyrimidine], the values for the Ki in test [1] and in test [2] were above 1000 nM and above 5000 nM, respectively.

Turning to `Cc1nn2c(C3CCCN(Cc4ccc(Cl)cc4)C3)ccnc2c1CN1CCC(C(N)=O)CC1` (stereo not shown) [Example 171, 1-((7-(1-(4-Chlorobenzyl)piperidin-3-yl)-2-methylpyrazolo[1,5-a]pyrimidin-3-yl)methyl)piperidine-4-carboxamide], the Ki in test [1] is below 500 nM; in test [2], 500 to 5000 nM.

In the case of `Cc1nn2c(C3CCCN(Cc4ccccc4)C3)ccnc2c1N` (stereo not shown) [Example 90, 7-(1-Benzylpiperidin-3-yl)-2-methylpyrazolo[1,5-a]pyrimidin-3-amine], the Ki in test [1] was above 1000 nM; in test [2], above 5000 nM.

Take `Cc1cc2nccc(C3CCCN(Cc4c(F)cccc4F)C3)n2n1` (stereo not shown) [Example 65, 7-(1-(2,6-Difluorobenzyl)piperidin-3-yl)-2-methylpyrazolo[1,5-a]pyrimidine]: the Ki in test [1] was above 1000 nM; in test [2], 500 to 5000 nM.

With `Cc1nn2c([C@@H]3CCCN([C@H](CO)c4ccccc4)C3)ccnc2c1-c1ccncc1` [Example 106, (S)-2-((R)-3-(2-Methyl-3-(pyridin-4-yl)pyrazolo[1,5-a]pyrimidin-7-yl)piperidin-1-yl)-2-phenylethanol], the Ki is above 1000 nM in test [1] and above 5000 nM in test [2].

With `CNCc1cn(-c2cccc(-c3c(C)nn4c(C5CCCN(Cc6ccccc6)C5)ccnc34)c2)nn1` (stereo not shown) [Example 61, 1-(1-(3-(7-(1-Benzylpiperidin-3-yl)-2-methylpyrazolo[1,5-a]pyrimidin-3-yl)phenyl)-1H-1,2,3-triazol-4-yl)-N-methylmethanamine], the Ki in test [1] is above 1000 nM; in test [2], 500 to 5000 nM.
